Experimental data published in US9290570B2, “Pan-ELR+ CXC Chemokine Antibodies” (Eli Lilly and Company, priority 2013, dated 2016).

Legend:
[1] = tested on: SKOV3-Luc ovarian cancer cells; assay: SKOV3-Luc ovarian cancer xenograft model; format: in vivo, mice; conditions: cisplatin 2.5 mg/kg, Antibody 1 20 mg/kg once a week intraperitoneal
Method: SKOV3-Luc is a human ovary cancer cell line that expresses firefly luciferase gene. SKOV3-Luc cells are often used in vivo to establish human ovarian adenocarcinoma tumor growth.
SKOV3-Luc ovarian cancer cells were mixed 1:1 with matrigel and implanted subcutaneously in the right rear flank of athymic nude female mice at 3.0×10^6 cells per injection. Mice were randomized into 4 groups at baseline according to tumor volume after the xenografts were grown to an average tumor volume of 200 mm^3 Mice received either control IgG4 antibody (2.5 mg/kg once a week), cisplatin (2.5 mg/kg once a week), Antibody 1 (20 mg/kg once a week), or a combination of cisplatin (2.5 mg·kg once a week) and Antibody 1 (20 mg/kg once a week) by intraperitoneal injection.

human CXCR2 = molecular target: T1, human CXCR2 (Homo sapiens, UniProt P25025); assay: U937-huCXCR2 FLIPR activity of wild type and mutant human CXCL8; format: cell-based; conditions: activity of the CXCL8 variant itself on U937-huCXCR2 cells
T1 construct: expressed in transfected cells; host or cells: U937 monocytic cell line, retrovirally transduced (U937-huCXCR2)
T1 sequence (P25025 1-360): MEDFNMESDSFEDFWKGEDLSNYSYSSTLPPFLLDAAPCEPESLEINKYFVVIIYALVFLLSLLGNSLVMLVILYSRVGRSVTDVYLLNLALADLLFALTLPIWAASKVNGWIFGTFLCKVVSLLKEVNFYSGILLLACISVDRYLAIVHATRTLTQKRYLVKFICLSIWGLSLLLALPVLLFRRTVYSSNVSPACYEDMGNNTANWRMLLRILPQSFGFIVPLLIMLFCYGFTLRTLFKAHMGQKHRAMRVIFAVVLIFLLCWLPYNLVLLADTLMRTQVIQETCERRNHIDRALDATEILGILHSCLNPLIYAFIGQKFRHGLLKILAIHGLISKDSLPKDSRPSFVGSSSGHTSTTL
Method: Wild type and mutant human CXCL8 are tested for biologic activity and for neutralization by Antibody 1 using the U937-huCXCR2 assay. U937-huCXCR2 is a monocytic cell line transduced with retrovirus for expression of human CXCR2. A description of the U937-huCXCR2 assay is found below under Neutralizing Assays.
CXCL8 mutants are serially diluted in Assay Buffer containing 0.2% BSA in wells of v-bottom 96-well polypropylene plates. Ligand concentrations are 3 times the final assay concentration (final assay concentrations range from 300 to 0.0051 nM). A cell plate and a ligand plate are loaded into a Fluorescent Imaging Plate Reader (FLIPR-3, Molecular Devices) programmed to transfer 50 μL of ligand to wells of the cell plate. Fluorescence is recorded at 1 second intervals for 90 seconds. The change in fluorescence [delta relative fluorescence units (DRFU), Max RFU-Min RFU] is calculated from images 10 to 90. DRFU versus log (ligand concentration) is plotted and EC50 values are determined by nonlinear regression using Graph Pad Prism. Assays are performed in triplicate over three assay plates.

Row | U937 FLIPR activity (EC50) (human CXCR2) | Compound | tumor growth inhibition compared to isotype control [1]
1 |  | N.N.[Cl][Pt][Cl] [Cisplatin, cisplatin] | did not show statistically significant tumor growth inhibition
2 | Not Active | R6A: R6A point mutant of human CXCL8 (SEQ ID NO: 27) [Antibody R6A] | 
